Target: T1, Smoothened (SMO) (Homo sapiens, UniProt Q99835)
T1 construct: human SMO transmembrane domain (residues 190-555) fused with N-terminal 10-His tag and thermostabilized apocytochrome b562RIL, in SMA-nanodiscs
T1 sequence (Q99835 190-555): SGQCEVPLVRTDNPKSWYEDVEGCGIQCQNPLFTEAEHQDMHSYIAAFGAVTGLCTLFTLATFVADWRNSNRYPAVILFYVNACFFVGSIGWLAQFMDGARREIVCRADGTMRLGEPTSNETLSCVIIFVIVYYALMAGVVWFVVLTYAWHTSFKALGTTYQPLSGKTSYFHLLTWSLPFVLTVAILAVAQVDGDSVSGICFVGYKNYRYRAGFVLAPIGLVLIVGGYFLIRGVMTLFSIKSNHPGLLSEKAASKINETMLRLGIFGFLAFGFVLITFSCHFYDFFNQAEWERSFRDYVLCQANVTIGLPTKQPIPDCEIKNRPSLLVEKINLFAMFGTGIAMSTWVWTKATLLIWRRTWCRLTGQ
Assay: ligand-observed 1D 1H NMR titration (line broadening), purified SMO in SMA-nanodiscs
Type: binding

Row | Kd | SMILES
1 | 15.9 ± 4.4 nM | CN[C@H]1CC[C@H](N(Cc2cccc(-c3ccncc3)c2)C(=O)c2sc3ccccc3c2Cl)CC1 [SAG]
2 | 2.3 ± 1.2 nM | Cc1nn(-c2ccccc2)c(C)c1/C=N/N1CCN(Cc2ccccc2)CC1 [SANT-1]
